# From US20260265341A1, “EPISYNCHRONS FOR PRECISION MEDICINE” (priority 2022, published 2026)
# Marks after values point to notes of the source that are not given here. Primed or numbered codes have the meaning given here. Ends that are not written are not given here. * marks the point of attachment. GW4064″ = FXR ligand, CC(C)c1onc(-c2c(Cl)cccc2Cl)c1COc1ccc(/C=C/c2cccc(C(=O)*)c2)c(Cl)c1; RARβ/γ ligand = not defined here; Decanoyl = CCCCCCCCCC(=O)*; bexarotene″ = RXR ligand; GW4064(3) = FXR ligand; GW7647 = PPARα ligand
# Columns and labels:
# Type in all cases: cell-based
# [1] = system: A375; test: Cancer cell viability (CellTiterGlo), A375; settings: RXR modulators each at 0.5 uM with peptide imm3A1 0.66 uM, 72 hour; untreated=100
# Method: (§1) A375, A549 and HuT78 cancer cell lines was obtained from American Type Culture Collection (ATCC). They were grown in a T-75 flask in DMEM (or IMDM, for HuT78) medium containing 10% fetal bovine serum and penicillin-streptomycin at 37° C. in a humidified, 5% CO2 incubator. Cells (100 µl, 2,000 cells/well; 5,000 cells/well for HuT78) were plated in a 96-well plate and incubated overnight at 37° C. in a humidified, 5% CO2 incubator. Next day, 10 ul/well of compounds were added (quadruplicate wells). After 72 hour incubation with the compound, cell viability was measured in a luminometer by addition of 100 µL/well CellTiterGlo reagent (Promega Inc, Madison, WI) and reading chemiluminescence after 10 mins, as recommended by the manufacturer. Peptide imm3A1 ([…]-[…]) was added at 0.66 uM and RXR modulators, each at 0.5 uM. The results of this experiment are shown below, expressed as percent survival of cells (untreated=100).
# [2] = system: A549; test: Cancer cell viability (CellTiterGlo), A549; settings: RXR modulators each at 0.5 uM with peptide imm3A1 0.66 uM, 72 hour; untreated=100
# Method: as §1
# [3] = system: HuT78; test: Cancer cell viability (CellTiterGlo), HuT78; settings: RXR modulators each at 0.5 uM with peptide imm3A1 0.66 uM, 72 hour; untreated=100
# Method: as §1
# [4] = system: HFF-1 cell line; test: Collagen stimulating activity (COL1A1 ELISA of supernatants); settings: peptide 2 uM, 72 hour, supernatant anti-COL1A1 ELISA
# Method: Immodulin peptides have potential untility in the field of cosmetics. HFF-1 cell line from American Type Culture Collection (ATCC) was grown in DMEM Medium containing 10% fetal bovine serum and penicillin-streptomycin at 37° C. in a humidified, 5% CO2 incubator. 2,000 cells/well were plated in a 96-well plate and incubated overnight. 10 ul/well of peptides (2 uM final concentration) were added in quadruplicate wells. After 72 hour incubation with the compound, supernatants were collected and immunoreactivity was measured by ELISA using monoclonal anti-COL1A1 antibody (Abcam, Cambridge, MA). * p<0.05, ** p<0.01 vs no peptide.
# [5] = system: C2C12 myoblast cell line; test: C2C12 myoblast differentiation assay (creatine kinase); set-up: CK (units/mg): unit not given here; settings: for CK (units/mg): peptide(s) 0.66 uM, no free added ligand, 96 h, relative to imm3SVD (=100)
# Method: C2C12 myoblast cell line (ATCC, Manassas, VA) was cultured in DMEM medium supplemented with 10% FBS and 1% penicillin/streptomycin. For differentiation, cells were cultured in the same medium, except that 10% FBS was replaced by 2% horse serum. Peptides and NR ligands were added at the indicated concentrations and cells were harvested 96 hours later for assay. Cell extracts were assayed for creatine kinase (CK) per mg protein. CK was measured using the ECPK-100 kit from BioAssay Systems (Hayward, CA). Protein was assayed using the BCA protein assay kit from Thermofisher Scientific (Waltham, MA).
compound,measurement,setting,value
CN1c2ccc([N+](=O)[O-])cc2N=C(c2ccc(C(=O)O)cc2)c2cc3c(cc21)C(C)(C)CCC3(C)C [HX531],"percent survival of cells, A375",[1],89.9 ± 1.6 a percent
same,"percent survival of cells, A549",[2],89.2 ± 4.1 b percent
same,"percent survival of cells, HuT78",[3],88.1 ± 0.8%
CN1c2ccccc2N=C(c2ccc(C(=O)O)cc2)c2cc3c(cc21)C(C)(C)CCC3(C)C [HX600],"percent survival of cells, A375",[1],57.1 ± 0.6 a percent
same,"percent survival of cells, A549",[2],60.0 ± 0.6 a percent
same,"percent survival of cells, HuT78",[3],48.7 ± 2.8 a percent
IM3: peptide KKGFYKKKQCRPSKGRKRGFCW,COL1,[4],0.28 ± 0.23 ng/mL
IM3K9: peptide AFNSYELGSKGFYKKKQCRPSKGRKRGFCW,COL1 ng/ml,[4],0.57 ± 0.13** ng/ml
"IM3dec: (decanoic)-KKGFYKKKQCRPSKGRKRGFCW, N-lig PPARγ (Decanoyl-KKGFYKKKQCRPSKGRKRGFCW; cysteine pairing not given here)",COL1 ng/ml,[4],0.41 ± 0.11* ng/ml
imm3bex: SDKKGFYKKKQCRPSKGRKRGFCWSVDK with C-lig bexarotene (RXR ligand) (SDKKGFYKKKQCRPSKGRKRGFCWSVDK-{bexarotene″}; cysteine pairing not given here),CK (units/mg),[5],121.0 ± 6.6
"imm3decK9adp: multisynchron SAFNSYELGSDKKGFYKKKQCRPSKGRKRGFCWS, N-lig PPARγ, C-lig RARβ/γ (Decanoyl-SAFNSYELGSDKKGFYKKKQCRPSKGRKRGFCWS-{RARβ/γ ligand}; cysteine pairing not given here; reading uncertain)",COL1 ng/ml,[4],5.27 ± 0.36** ng/ml
"imm3fxr-bex: fxr-SDKKGFYKKKQCRPSKGRKRGFCWSVDK-[bex]: GW4064 at N-terminus, bexarotene at C-terminus; multisynchron ({GW4064″}-SDKKGFYKKKQCRPSKGRKRGFCWSVDK-{bexarotene″}; cysteine pairing not given here)",performance in cell culture assays,[5]; single peptide compared with combination of imm3fxr and imm3bex,performs as predicted from the performance of the combination of imm3fxr and imm3bex episynchrons
imm3fxr: SDKKGFYKKKQCRPSKGRKRGFCWSVDK with C-lig GW4064 (FXR ligand) (SDKKGFYKKKQCRPSKGRKRGFCWSVDK-{GW4064(3)}; cysteine pairing not given here),CK (units/mg),[5],136.8 ± 19.6
imm3ppa: SDKKGFYKKKQCRPSKGRKRGFCWSVDK with C-lig GW7647 (PPARα ligand) on C-terminal lysine (SDKKGFYKKKQCRPSKGRKRGFCWSVDK(GW7647); cysteine pairing not given here),CK (units/mg),[5],155.9 ± 18.8
